Columns and labels:
Format in all cases: functional
[1] = test system: NCI-H522; test: Anticancer activity against human NCI-H522 cells after 48 hrs by sulforhodamine B assay
[2] = test system: MOLT-4; test: Anticancer activity against human MOLT4 cells assessed cell growth at 10 uM after 48 hrs by sulforhodamine B assay relative to control
[3] = test system: A498; test: Anticancer activity against human A498 cells after 48 hrs by sulforhodamine B assay; settings: for CC50: read-out: LC50 (the source's name)
[4] = test system: NCI/ADR-RES; test: Anticancer activity against human NCI/ADR-RES cells assessed cell growth at 10 uM after 48 hrs by sulforhodamine B assay relative to control
[5] = test system: A498; test: Anticancer activity against human A498 cells assessed cell growth at 10 uM after 48 hrs by sulforhodamine B assay relative to control
[6] = test system: DU-145; test: Anticancer activity against human DU145 cells after 48 hrs by sulforhodamine B assay; settings: for CC50: read-out: LC50 (the source's name)
[7] = test system: MDA-MB-231; test: Anticancer activity against human MDA-MB-231 cells after 48 hrs by sulforhodamine B assay; settings: for CC50: read-out: LC50 (the source's name)
[8] = test system: HOP-62; test: Anticancer activity against human HOP62 cells after 48 hrs by sulforhodamine B assay; settings: for CC50: read-out: LC50 (the source's name)
[9] = test system: SF-295; test: Anticancer activity against human SF295 cells after 48 hrs by sulforhodamine B assay; settings: for CC50: read-out: LC50 (the source's name)
[10] = test system: NCI-H226; test: Anticancer activity against human NCI-H226 cells assessed cell growth at 10 uM after 48 hrs by sulforhodamine B assay relative to control
[11] = test system: CCRF-CEM; test: Anticancer activity against human CCRF-CEM cells after 48 hrs by sulforhodamine B assay
[12] = test system: EKVX; test: Anticancer activity against human EKVX cells after 48 hrs by sulforhodamine B assay; settings: for CC50: read-out: LC50 (the source's name)
[13] = test system: OVCAR-4; test: Anticancer activity against human OVCAR4 cells after 48 hrs by sulforhodamine B assay; settings: for CC50: read-out: LC50 (the source's name)
[14] = test system: UACC-62; test: Anticancer activity against human UACC62 cells after 48 hrs by sulforhodamine B assay
[15] = test system: T47D; test: Anticancer activity against human T47D cells after 48 hrs by sulforhodamine B assay
[16] = test system: UO-31; test: Anticancer activity against human UO31 cells after 48 hrs by sulforhodamine B assay
[17] = test system: K562; test: Anticancer activity against human K562 cells assessed cell growth at 10 uM after 48 hrs by sulforhodamine B assay relative to control
[18] = test system: UACC-62; test: Anticancer activity against human UACC62 cells assessed cell growth at 10 uM after 48 hrs by sulforhodamine B assay relative to control
[19] = test system: COLO 205; test: Anticancer activity against human COLO205 cells assessed cell growth at 10 uM after 48 hrs by sulforhodamine B assay relative to control
[20] = test system: LOX IMVI; test: Anticancer activity against human LOXIMVI cells after 48 hrs by sulforhodamine B assay; settings: for CC50: read-out: LC50 (the source's name)
[21] = test system: HT-29; test: Anticancer activity against human HT-29 cells assessed cell growth at 10 uM after 48 hrs by sulforhodamine B assay relative to control
[22] = test system: SF-268; test: Anticancer activity against human SF268 cells after 48 hrs by sulforhodamine B assay; settings: for CC50: read-out: LC50 (the source's name)
[23] = test system: UACC-257; test: Anticancer activity against human UACC257 cells after 48 hrs by sulforhodamine B assay
[24] = test system: A549; test: Anticancer activity against human A549 cells assessed cell growth at 10 uM after 48 hrs by sulforhodamine B assay relative to control
[25] = test system: M14; test: Anticancer activity against human M14 cells assessed cell growth at 10 uM after 48 hrs by sulforhodamine B assay relative to control
[26] = test system: SW-620; test: Anticancer activity against human SW620 cells after 48 hrs by sulforhodamine B assay
[27] = test system: SNB-75; test: Anticancer activity against human SNB75 cells after 48 hrs by sulforhodamine B assay; settings: for CC50: read-out: LC50 (the source's name)
[28] = test system: OVCAR-3; test: Anticancer activity against human OVCAR-3 cells after 48 hrs by sulforhodamine B assay
[29] = Anticancer activity against human Hs 578T cells after 48 hrs by sulforhodamine B assay; settings: for CC50: read-out: LC50 (the source's name)
[30] = test system: OVCAR-3; test: Anticancer activity against human OVCAR-3 cells assessed cell growth at 10 uM after 48 hrs by sulforhodamine B assay relative to control
[31] = test system: NCI/ADR-RES; test: Anticancer activity against human NCI/ADR-RES cells after 48 hrs by sulforhodamine B assay
[32] = test system: CAKI-1; test: Anticancer activity against human Caki1 cells after 48 hrs by sulforhodamine B assay
[33] = test system: 786-0; test: Anticancer activity against human 786-0 cells after 48 hrs by sulforhodamine B assay
[34] = test system: SR; test: Anticancer activity against human SR cells assessed cell growth at 10 uM after 48 hrs by sulforhodamine B assay relative to control
[35] = test system: SK-MEL-5; test: Anticancer activity against human SK-MEL-5 cells assessed cell growth at 10 uM after 48 hrs by sulforhodamine B assay relative to control
[36] = test system: NCI-H460; test: Anticancer activity against human NCI-H460 cells after 48 hrs by sulforhodamine B assay
[37] = test system: SK-MEL-5; test: Anticancer activity against human SK-MEL-5 cells after 48 hrs by sulforhodamine B assay; settings: for CC50: read-out: LC50 (the source's name)
[38] = test system: HCC 2998; test: Anticancer activity against human HCC2998 cells assessed cell growth at 10 uM after 48 hrs by sulforhodamine B assay relative to control
[39] = test system: SNB-19; test: Anticancer activity against human SNB19 cells after 48 hrs by sulforhodamine B assay; settings: for CC50: read-out: LC50 (the source's name)
[40] = test system: NCI-H226; test: Anticancer activity against human NCI-H226 cells after 48 hrs by sulforhodamine B assay
[41] = test system: PC-3; test: Anticancer activity against human PC3 cells after 48 hrs by sulforhodamine B assay; settings: for CC50: read-out: LC50 (the source's name)

For `CCCCCCCCCCCCCCCCCC[n+]1ccn(C)c1.F[P-](F)(F)(F)(F)F`, the GI50 [1] was 1.16 µM, the LC50 [1] was 6.77 µM and the Activity [2] was 2.98%. For the same compound, the GI50 [3] was 1.15 µM, the CC50 [3] was 7.55 µM and the Activity [4] was 22.73%. For the same compound, the Activity [5] was -51.56%, the GI50 [6] was 1.02 µM and the CC50 [6] was 4.68 µM. It also gave a GI50 [7] of 1.03 µM, a CC50 [7] of 5.11 µM and a GI50 [8] of 1.45 µM. The CC50 [8] was 7.77 µM, the GI50 [9] was 0.503 µM and the CC50 [9] was 6.02 µM. For the same compound, the Activity [10] was -34.72%, the GI50 [11] was 0.129 µM and the LC50 [11] was 0.98 µM. The GI50 [12] was 1.12 µM, the CC50 [12] was 7.64 µM and the GI50 [13] was 1.03 µM. For the same compound, the CC50 [13] was 6.33 µM, the GI50 [14] was 1.18 µM and the LC50 [14] was 5.2 µM. For the same compound, the GI50 [15] was 0.719 µM, the GI50 [16] was 0.657 µM and the LC50 [16] was 5.35 µM. The Activity [17] was 14.23%, the Activity [18] was -65.74% and the Activity [19] was -27.43%. The GI50 [20] was 0.385 µM, the CC50 [20] was 3.84 µM and the Activity [21] was -50.31%. The GI50 [22] was 1.26 µM, the CC50 [22] was 6.06 µM and the GI50 [23] was 1.69 µM. The LC50 [23] was 9.66 µM, the Activity [24] was -24.42% and the Activity [25] was -28.52%. The GI50 [26] was 0.519 µM, the LC50 [26] was 4.32 µM and the GI50 [27] was 0.991 µM. It also gave a CC50 [27] of 6.5 µM, a GI50 [28] of 0.453 µM and an LC50 (50% lethal concentration) [28] of 4.39 µM. For the same compound, the GI50 [29] was 0.536 µM, the CC50 [29] was 6.15 µM and the Activity [30] was -57.4%. It also gave a GI50 [31] of 1.45 µM, a GI50 [32] of 0.791 µM and an LC50 [32] of 8.9 µM. It also gave a GI50 [33] of 1.25 µM, an LC50 (50% lethal concentration) [33] of 8.58 µM and an Activity [34] of 13.95%. For the same compound, the Activity [35] was -85.04%, the GI50 [36] was 0.636 µM and the LC50 [36] was 4.38 µM. The GI50 [37] was 0.617 µM, the CC50 [37] was 4.37 µM and the Activity [38] was -83.5%. The GI50 [39] was 1.45 µM, the CC50 [39] was 7.89 µM and the GI50 [40] was 1.17 µM. It also gave an LC50 [40] of 5.74 µM, a GI50 [41] of 0.286 µM and a CC50 [41] of 3.54 µM.

For `CCCCCCCCCCCCCCCC[n+]1ccn(C)c1.[Cl-]`, the GI50 ([1]; Homo sapiens, NCI-H522, 48 h) was 1.01 µM, the Activity [2] was 17.19% and the GI50 ([3]; Homo sapiens, A498, 48 h) was 1.11 µM. For the same compound, the CC50 ([3]; Homo sapiens, A498, 48 h) was 7.39 µM, the Activity [4] was 37.13% and the Activity [5] was -65.31%. For the same compound, the GI50 ([6]; Homo sapiens, DU-145, 48 h) was 0.719 µM, the CC50 ([6]; Homo sapiens, DU-145, 48 h) was 4.48 µM and the GI50 ([7]; Homo sapiens, MDA-MB-231, 48 h) was 0.616 µM. For the same compound, the CC50 ([7]; Homo sapiens, MDA-MB-231, 48 h) was 4.55 µM, the GI50 ([8]; Homo sapiens, HOP-62, 48 h) was 1.17 µM and the CC50 ([8]; Homo sapiens, HOP-62, 48 h) was 6.89 µM. It also gave a GI50 ([9]; Homo sapiens, SF-295, 48 h) of 0.383 µM, a CC50 ([9]; Homo sapiens, SF-295, 48 h) of 5.02 µM and an Activity [10] of -60.54%. The GI50 ([11]; Homo sapiens, CCRF-CEM, 48 h) was 0.164 µM, the GI50 ([12]; Homo sapiens, EKVX, 48 h) was 0.358 µM and the CC50 ([12]; Homo sapiens, EKVX, 48 h) was 6.77 µM. The GI50 ([13]; Homo sapiens, OVCAR-4, 48 h) was 0.594 µM, the CC50 ([13]; Homo sapiens, OVCAR-4, 48 h) was 7.2 µM and the GI50 ([14]; Homo sapiens, UACC-62, 48 h) was 1.04 µM. For the same compound, the GI50 ([15]; Homo sapiens, T47D, 48 h) was 0.564 µM, the CC50 ([15]; Homo sapiens, T47D, 48 h, read-out: LC50 (the source's name)) was greater than 100 µM and the GI50 ([16]; Homo sapiens, UO-31, 48 h) was 1.1 µM. For the same compound, the Activity [17] was 72.56%, the Activity [18] was -94.58% and the Activity [19] was -45.99%. For the same compound, the GI50 ([20]; Homo sapiens, LOX IMVI, 48 h) was 0.334 µM, the CC50 ([20]; Homo sapiens, LOX IMVI, 48 h) was 3.78 µM and the Activity [21] was -100%. For the same compound, the GI50 ([22]; Homo sapiens, SF-268, 48 h) was 1.02 µM, the CC50 ([22]; Homo sapiens, SF-268, 48 h) was 4.93 µM and the GI50 ([23]; Homo sapiens, UACC-257, 48 h) was 1.12 µM. It also gave an Activity [24] of -50.92%, an Activity [25] of -73.7% and a GI50 ([26]; Homo sapiens, SW-620, 48 h) of 0.461 µM. It also gave a GI50 ([27]; Homo sapiens, SNB-75, 48 h) of 0.555 µM, a CC50 ([27]; Homo sapiens, SNB-75, 48 h) of 5.65 µM and a GI50 ([28]; Homo sapiens, OVCAR-3, 48 h) of 0.414 µM. It also gave a GI50 ([29]; Homo sapiens, Hs-578T, 48 h) of 0.538 µM, a CC50 ([29]; Homo sapiens, Hs-578T, 48 h) of 6.11 µM and an Activity [30] of -24.76%. The GI50 ([31]; Homo sapiens, NCI/ADR-RES, 48 h) was 2.1 µM, the GI50 ([32]; Homo sapiens, CAKI-1, 48 h) was 0.385 µM and the GI50 ([33]; Homo sapiens, 786-0, 48 h) was 1.18 µM. It also gave an Activity [34] of 15.17%, an Activity [35] of -95.2% and a GI50 ([36]; Homo sapiens, NCI-H460, 48 h) of 0.498 µM. It also gave a GI50 ([37]; Homo sapiens, SK-MEL-5, 48 h) of 0.461 µM, a CC50 ([37]; Homo sapiens, SK-MEL-5, 48 h) of 4.19 µM and an Activity [38] of -94.43%. It also gave a GI50 ([39]; Homo sapiens, SNB-19, 48 h) of 1.22 µM, a CC50 ([39]; Homo sapiens, SNB-19, 48 h) of 9.59 µM and a GI50 ([40]; Homo sapiens, NCI-H226, 48 h) of 0.861 µM. The GI50 ([41]; Homo sapiens, PC-3, 48 h) was 0.268 µM and the CC50 ([41]; Homo sapiens, PC-3, 48 h) was 3.86 µM.

Source: ChEMBL document CHEMBL1153245, “A profile of the in vitro anti-tumor activity of imidazolium-based ionic liquids” (2010)
